# Reference: BindingDB's records for doi:10.1515/dmdi.1990.8.1-2.85 (Duphar, 1990)
# Columns and labels:
# [1] = target: Muscarinic acetylcholine receptor M3 (Rattus norvegicus, UniProt P08483)
# [2] = target: Alpha-2C adrenergic receptor (Rattus norvegicus, UniProt P22086)
# [3] = target: Voltage-dependent calcium channel gamma-1 subunit (Homo sapiens, UniProt Q06432)
# [4] = target: Alpha-1A adrenergic receptor (Rattus norvegicus, UniProt P43140)
# [5] = target: 5-hydroxytryptamine receptor 1B (Rattus norvegicus, UniProt P28564)
# [6] = target: Histamine H1 receptor (Rattus norvegicus, UniProt P31390)
# [7] = target: Calcium release-activated calcium channel protein 1 (Homo sapiens, UniProt Q96D31)
# [8] = target: Gastrin/cholecystokinin type B receptor (Rattus norvegicus, UniProt P30553)
# Sequence of Gastrin/cholecystokinin type B receptor (P30553 whole entry): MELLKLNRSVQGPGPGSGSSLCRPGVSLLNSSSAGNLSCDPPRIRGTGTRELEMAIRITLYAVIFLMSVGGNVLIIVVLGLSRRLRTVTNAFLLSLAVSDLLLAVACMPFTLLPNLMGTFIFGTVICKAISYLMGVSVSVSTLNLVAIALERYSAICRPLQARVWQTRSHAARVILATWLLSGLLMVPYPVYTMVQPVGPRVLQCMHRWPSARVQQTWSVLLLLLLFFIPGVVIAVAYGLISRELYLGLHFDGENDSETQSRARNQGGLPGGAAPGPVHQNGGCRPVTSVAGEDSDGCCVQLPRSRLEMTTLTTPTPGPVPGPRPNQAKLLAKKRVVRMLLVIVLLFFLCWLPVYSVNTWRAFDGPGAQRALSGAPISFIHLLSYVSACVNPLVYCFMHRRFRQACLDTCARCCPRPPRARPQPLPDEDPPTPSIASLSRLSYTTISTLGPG
# [9] = target: D(2) dopamine receptor (Rattus norvegicus, UniProt P61169)
# Sequence of D(2) dopamine receptor (P61169 whole entry): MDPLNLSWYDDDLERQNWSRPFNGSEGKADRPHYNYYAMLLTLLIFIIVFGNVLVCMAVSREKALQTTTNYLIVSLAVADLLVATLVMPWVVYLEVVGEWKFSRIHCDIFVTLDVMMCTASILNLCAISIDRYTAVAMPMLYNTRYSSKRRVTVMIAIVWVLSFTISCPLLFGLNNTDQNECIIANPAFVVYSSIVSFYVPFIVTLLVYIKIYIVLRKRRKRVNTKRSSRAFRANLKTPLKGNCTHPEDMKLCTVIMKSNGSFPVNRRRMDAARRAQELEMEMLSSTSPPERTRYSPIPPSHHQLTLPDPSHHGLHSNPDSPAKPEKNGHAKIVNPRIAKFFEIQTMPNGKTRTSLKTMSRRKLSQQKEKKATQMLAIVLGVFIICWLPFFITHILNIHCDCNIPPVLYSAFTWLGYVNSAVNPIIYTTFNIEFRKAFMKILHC
# [10] = target: Cysteinyl leukotriene receptor 1 (Cavia porcellus, UniProt Q2NNR5)
# [11] = target: Protachykinin-1 (Rattus norvegicus, UniProt P06767)
# [12] = target: Kappa-type opioid receptor (Rattus norvegicus, UniProt P34975)
# Sequence of Kappa-type opioid receptor (P34975 whole entry): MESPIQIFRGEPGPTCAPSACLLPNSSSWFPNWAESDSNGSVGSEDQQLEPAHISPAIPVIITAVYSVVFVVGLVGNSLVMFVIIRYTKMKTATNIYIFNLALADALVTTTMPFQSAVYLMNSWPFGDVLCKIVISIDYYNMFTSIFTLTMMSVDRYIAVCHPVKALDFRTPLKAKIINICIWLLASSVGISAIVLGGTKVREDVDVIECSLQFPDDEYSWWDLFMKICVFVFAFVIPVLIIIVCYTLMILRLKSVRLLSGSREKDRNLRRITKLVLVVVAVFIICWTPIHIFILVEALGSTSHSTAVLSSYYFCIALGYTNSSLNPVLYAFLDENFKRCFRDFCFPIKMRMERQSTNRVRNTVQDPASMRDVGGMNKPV
# [13] = target: Muscarinic acetylcholine receptor M1 (Rattus norvegicus, UniProt P08482)
# Sequence of Muscarinic acetylcholine receptor M1 (P08482 whole entry): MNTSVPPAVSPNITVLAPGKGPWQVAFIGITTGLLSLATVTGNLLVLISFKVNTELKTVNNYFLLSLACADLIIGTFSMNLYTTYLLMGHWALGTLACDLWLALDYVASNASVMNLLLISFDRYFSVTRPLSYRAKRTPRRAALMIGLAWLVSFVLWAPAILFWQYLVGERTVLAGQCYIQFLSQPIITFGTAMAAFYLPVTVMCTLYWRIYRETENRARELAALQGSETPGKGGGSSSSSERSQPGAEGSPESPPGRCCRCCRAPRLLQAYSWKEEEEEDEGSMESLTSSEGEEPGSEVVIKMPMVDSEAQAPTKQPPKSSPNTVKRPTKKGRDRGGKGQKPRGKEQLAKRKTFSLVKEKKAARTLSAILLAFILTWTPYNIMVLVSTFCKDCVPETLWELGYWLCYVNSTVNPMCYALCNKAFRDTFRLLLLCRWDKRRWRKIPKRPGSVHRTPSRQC
# [14] = target: Gamma-aminobutyric acid receptor subunit alpha-1 (Rattus norvegicus, UniProt P62813)
# Sequence of Gamma-aminobutyric acid receptor subunit alpha-1 (P62813 whole entry): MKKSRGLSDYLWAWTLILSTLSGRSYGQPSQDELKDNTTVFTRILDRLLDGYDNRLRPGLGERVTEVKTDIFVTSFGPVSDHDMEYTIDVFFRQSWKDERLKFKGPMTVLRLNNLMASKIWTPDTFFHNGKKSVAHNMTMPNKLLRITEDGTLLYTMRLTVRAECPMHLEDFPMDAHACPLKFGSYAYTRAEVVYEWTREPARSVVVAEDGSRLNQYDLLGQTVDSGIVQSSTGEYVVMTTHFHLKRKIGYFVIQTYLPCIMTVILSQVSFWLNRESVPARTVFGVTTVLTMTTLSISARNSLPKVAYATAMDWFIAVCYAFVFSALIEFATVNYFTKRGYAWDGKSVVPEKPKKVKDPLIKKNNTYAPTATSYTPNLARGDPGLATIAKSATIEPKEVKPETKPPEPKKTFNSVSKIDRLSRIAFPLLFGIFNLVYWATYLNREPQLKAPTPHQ
# [15] = target: 5-hydroxytryptamine 1D receptor (Bos taurus, UniProt Q8MI13)
# Sequence of 5-hydroxytryptamine 1D receptor (Q8MI13 whole entry): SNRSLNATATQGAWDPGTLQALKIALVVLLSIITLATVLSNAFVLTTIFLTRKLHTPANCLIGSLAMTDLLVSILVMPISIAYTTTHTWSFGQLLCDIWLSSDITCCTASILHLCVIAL
# [16] = target: Beta-1 adrenergic receptor (Rattus norvegicus, UniProt P18090)
# [17] = target: Mu-type opioid receptor (Rattus norvegicus, UniProt P33535)
# [18] = target: D(1A) dopamine receptor (Rattus norvegicus, UniProt P18901)
# [19] = target: 5-hydroxytryptamine receptor 3A (Mus musculus, UniProt P23979)
# Sequence of 5-hydroxytryptamine receptor 3A (P23979 as listed by the source): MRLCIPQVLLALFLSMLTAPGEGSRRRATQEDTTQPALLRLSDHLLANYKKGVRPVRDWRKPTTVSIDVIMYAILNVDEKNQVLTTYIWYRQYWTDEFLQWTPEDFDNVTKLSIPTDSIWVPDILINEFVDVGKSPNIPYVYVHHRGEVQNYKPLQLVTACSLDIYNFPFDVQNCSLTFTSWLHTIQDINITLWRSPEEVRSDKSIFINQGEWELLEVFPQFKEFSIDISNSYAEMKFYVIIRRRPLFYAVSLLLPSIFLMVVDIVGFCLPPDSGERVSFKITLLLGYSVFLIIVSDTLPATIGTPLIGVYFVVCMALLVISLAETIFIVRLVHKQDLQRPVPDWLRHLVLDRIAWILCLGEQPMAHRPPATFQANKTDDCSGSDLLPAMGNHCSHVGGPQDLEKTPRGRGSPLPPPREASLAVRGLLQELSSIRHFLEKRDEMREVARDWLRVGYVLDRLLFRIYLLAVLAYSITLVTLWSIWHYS
# [20] = target: Delta-type opioid receptor (Rattus norvegicus, UniProt P33533)
# [21] = target: Muscarinic acetylcholine receptor M2 (Rattus norvegicus, UniProt P10980)
# [22] = target: 5-hydroxytryptamine receptor 2C (Sus scrofa, UniProt G7ZKZ7)
# [23] = target: Pro-thyrotropin-releasing hormone (Rattus norvegicus, UniProt P01150)
# [24] = target: Glycine amidinotransferase, mitochondrial (Rattus norvegicus, UniProt P50442)
# Sequence of Glycine amidinotransferase, mitochondrial (P50442 whole entry): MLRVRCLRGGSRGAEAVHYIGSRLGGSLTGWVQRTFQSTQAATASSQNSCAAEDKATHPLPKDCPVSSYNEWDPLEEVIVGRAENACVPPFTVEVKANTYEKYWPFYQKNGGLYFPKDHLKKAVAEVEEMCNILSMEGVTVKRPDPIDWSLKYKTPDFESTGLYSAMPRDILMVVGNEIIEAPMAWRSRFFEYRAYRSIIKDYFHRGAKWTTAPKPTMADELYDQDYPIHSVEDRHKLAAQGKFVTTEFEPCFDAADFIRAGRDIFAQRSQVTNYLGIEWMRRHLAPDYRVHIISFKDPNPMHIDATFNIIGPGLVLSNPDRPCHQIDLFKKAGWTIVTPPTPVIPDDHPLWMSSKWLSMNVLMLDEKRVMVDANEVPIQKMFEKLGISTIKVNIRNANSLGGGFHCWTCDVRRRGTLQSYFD
# [25] = target: 5-hydroxytryptamine receptor 2A (Rattus norvegicus, UniProt P14842)
# Sequence of 5-hydroxytryptamine receptor 2A (P14842 whole entry): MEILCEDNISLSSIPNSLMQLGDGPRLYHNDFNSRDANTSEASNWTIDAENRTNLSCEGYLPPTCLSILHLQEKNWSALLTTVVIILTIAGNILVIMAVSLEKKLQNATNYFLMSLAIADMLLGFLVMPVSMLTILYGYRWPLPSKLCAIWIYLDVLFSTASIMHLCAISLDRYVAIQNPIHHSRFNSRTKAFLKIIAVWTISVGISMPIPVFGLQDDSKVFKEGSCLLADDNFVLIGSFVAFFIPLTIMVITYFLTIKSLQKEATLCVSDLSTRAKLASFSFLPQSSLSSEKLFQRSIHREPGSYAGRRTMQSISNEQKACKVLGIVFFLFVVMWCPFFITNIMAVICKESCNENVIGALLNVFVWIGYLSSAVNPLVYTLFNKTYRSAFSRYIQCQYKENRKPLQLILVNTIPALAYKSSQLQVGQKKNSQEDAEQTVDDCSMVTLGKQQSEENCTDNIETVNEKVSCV
# [26] = target: Sigma non-opioid intracellular receptor 1 (Rattus norvegicus, UniProt Q9R0C9)
# Sequence of Sigma non-opioid intracellular receptor 1 (Q9R0C9 whole entry): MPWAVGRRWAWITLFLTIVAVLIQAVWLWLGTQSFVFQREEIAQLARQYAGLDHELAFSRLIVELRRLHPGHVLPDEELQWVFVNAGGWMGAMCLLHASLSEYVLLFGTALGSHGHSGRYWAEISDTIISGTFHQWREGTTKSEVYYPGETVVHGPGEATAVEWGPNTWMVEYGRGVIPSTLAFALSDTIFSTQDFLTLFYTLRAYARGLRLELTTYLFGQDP
# [27] = target: Glutamate receptor ionotropic, NMDA 1 (Rattus norvegicus, UniProt P35439)
# Sequence of Alpha-1A adrenergic receptor (P43140 whole entry): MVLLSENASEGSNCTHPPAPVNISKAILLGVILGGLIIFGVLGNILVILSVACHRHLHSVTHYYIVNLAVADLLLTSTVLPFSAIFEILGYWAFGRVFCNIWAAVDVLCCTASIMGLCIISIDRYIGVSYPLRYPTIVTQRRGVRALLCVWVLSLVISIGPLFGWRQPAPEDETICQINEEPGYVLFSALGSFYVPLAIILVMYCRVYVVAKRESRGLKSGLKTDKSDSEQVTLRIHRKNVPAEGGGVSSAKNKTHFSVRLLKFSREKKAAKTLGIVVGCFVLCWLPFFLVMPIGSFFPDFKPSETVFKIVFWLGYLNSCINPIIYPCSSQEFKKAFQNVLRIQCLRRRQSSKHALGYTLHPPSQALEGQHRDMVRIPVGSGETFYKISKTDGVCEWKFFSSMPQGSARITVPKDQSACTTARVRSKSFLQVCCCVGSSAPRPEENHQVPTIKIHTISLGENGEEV
# Sequence of Alpha-2C adrenergic receptor (P22086 whole entry): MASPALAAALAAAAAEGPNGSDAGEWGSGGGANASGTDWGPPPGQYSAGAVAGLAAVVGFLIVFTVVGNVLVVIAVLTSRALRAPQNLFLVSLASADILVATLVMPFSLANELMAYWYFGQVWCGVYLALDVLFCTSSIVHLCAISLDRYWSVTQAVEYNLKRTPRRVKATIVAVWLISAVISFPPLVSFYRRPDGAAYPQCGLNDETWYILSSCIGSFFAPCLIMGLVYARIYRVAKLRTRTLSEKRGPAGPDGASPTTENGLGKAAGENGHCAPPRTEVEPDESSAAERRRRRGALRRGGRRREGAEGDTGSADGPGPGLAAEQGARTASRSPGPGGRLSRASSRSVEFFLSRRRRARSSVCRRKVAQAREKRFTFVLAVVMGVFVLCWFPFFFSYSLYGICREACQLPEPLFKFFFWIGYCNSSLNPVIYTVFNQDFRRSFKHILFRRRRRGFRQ
structure (smiles),measurement,setting,value
"c1cc2c(c(N3CCNCC3)c1)OCCO2 [1-(2,3-Dihydro-benzo[1,4]dioxin-5-yl)-piperazine]",Ki,[1],> 10 µM
same,Ki,[2],3.1 µM
same,Ki,[3],> 10 µM
same,Ki,[4],0.79 µM
same,Ki,[5],0.052 µM
same,Ki,[6],3.9 µM
same,Ki,[7],> 10 µM
same,Ki,[8],> 10 µM
same,Ki,[9],1.1 µM
same,Ki,[10],> 10 µM
same,Ki,[11],> 10 µM
same,Ki,[12],> 10 µM
same,Ki,[13],> 10 µM
same,Ki,[14],> 10 µM
same,Ki,[15],0.39 µM
same,Ki,[16],0.42 µM
same,Ki,[17],> 10 µM
same,Ki,[18],> 10 µM
same,Ki,[19],1.3 µM
same,Ki,[20],> 10 µM
same,Ki,[21],> 10 µM
same,Ki,[22],0.081 µM
same,Ki,[23],> 10 µM
same,Ki,[24],> 10 µM
same,Ki,[25],1.7 µM
same,Ki,[26],9.3 µM
same,Ki,[27],> 10 µM
